These results are taken from patent publication US11117926B2, “Cholane derivatives for use in the treatment and/or prevention of FXR and TGR5/GPBAR1 mediated diseases” (BAR PHARMACEUTICALS S.R.L., priority 2014, dated 2021).

Where a name gives a salt, the structure may show the parent alone.

One assay concerns the target T1, human GPBAR1 (Homo sapiens, UniProt Q8TDU6).
T1 construct: expressed in transfected cells; host or cells: HEK-293T
T1 sequence (Q8TDU6 1-330): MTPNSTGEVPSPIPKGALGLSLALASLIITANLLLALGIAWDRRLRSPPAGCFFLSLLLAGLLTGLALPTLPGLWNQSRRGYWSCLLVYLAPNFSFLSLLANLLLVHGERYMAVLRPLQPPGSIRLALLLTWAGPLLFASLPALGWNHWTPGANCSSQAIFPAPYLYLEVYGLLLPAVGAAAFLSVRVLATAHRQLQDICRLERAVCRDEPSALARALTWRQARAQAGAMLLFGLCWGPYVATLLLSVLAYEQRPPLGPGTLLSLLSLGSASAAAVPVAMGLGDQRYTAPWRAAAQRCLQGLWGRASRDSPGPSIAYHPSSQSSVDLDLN
Nature of the assay: GPBAR1 mediated transactivation (CRE luciferase reporter) in transfected HEK-293T cells. It is filed as cell-based. The note with it: each compound at 10 microM, transactivation activity of TLCA on CRE = 100%. The method, then: (§1) Each compound was tested at the concentration of 10 microM and transactivation activity of CDCA on FXR and TLCA on CRE (i.e. TGR5/GPBAR1) was considered equal to 100%.
(§2) Biological Activities. Activity of selected compounds was tested in vitro using a whole cell model transfected with a reporter genes to establish selectivity of compounds shown in table 1 toward FXR and TGR5/GPBAR1 in comparison with chenodeoxycholic acid (CDCA) and TLCA. CDCA is a primary bile acid that functions as an endogenous ligand for FXR, while TLCA is a physiological ligand for TGR5/GPBAR1. In this assay, HepG2 cells (a liver-derived cell line) were cultured at 37° C. in minimum essential medium with Earl's salts containing 10% fetal bovine serum (FBS), 1% L-glutamine, and 1% penicillin/streptomycin. […] The transfection experiments were performed using Fugene HD according to manufactured specifications. Cells were plated in a 24-well plate at 5×10^4 cells/well. For FXR mediated transactivation, HepG2 cells were transfected with 100 ng of pSG5-FXR, 100 ng of pSG5-RXR, 100 ng of pGL4.70 a vector encoding the human Renilla gene and 250 ng of the reporter vector p(hsp27)-TK-LUC containing the FXR response element IR1 cloned from the promoter of heat shock protein 27 (hsp27).
(§3) At 24 h post-transfection, cells were stimulated for 18 h with 10 μM TLCA as a control agent or putative GPBAR1 agonists as the same concentration. After treatments, cells were lysed in 100 μL of lysis buffer (25 mM Tris-phosphate, pH 7.8; 2 mM DTT; 10% glycerol; 1% Triton X-100), and 20 μL of cellular lysate was assayed for luciferase activity using the luciferase assay system. Luminescence was measured using Glomax 20/20 luminometer. Luciferase activities were normalized against Renilla activities. Antagonism against FXR of GPBAR1/TGR5 was measured as percent of activity in transactivation assay suing activity of TLCA as example of agonism.
For orientation: A reporter such as luciferase makes a cellular process visible.

In a further assay the target is T2, FXR (Homo sapiens, UniProt Q96RI1).
T2 construct: expressed in transfected cells; host or cells: HepG2
T2 sequence (Q96RI1 1-486): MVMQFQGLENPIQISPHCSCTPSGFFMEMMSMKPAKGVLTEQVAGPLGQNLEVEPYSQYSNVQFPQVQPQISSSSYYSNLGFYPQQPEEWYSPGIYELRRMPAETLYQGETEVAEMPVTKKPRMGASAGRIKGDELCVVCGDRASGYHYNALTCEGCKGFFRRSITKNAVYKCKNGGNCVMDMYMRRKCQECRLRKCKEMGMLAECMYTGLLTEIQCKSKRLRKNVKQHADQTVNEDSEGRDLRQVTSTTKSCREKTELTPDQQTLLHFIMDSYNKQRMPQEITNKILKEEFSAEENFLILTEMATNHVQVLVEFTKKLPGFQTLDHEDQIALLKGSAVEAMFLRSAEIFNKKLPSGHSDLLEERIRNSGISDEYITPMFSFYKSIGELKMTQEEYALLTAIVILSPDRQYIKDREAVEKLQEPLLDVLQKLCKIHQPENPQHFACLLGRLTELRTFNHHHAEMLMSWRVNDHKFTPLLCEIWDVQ
T2 sequence (P19793 1-462 partner): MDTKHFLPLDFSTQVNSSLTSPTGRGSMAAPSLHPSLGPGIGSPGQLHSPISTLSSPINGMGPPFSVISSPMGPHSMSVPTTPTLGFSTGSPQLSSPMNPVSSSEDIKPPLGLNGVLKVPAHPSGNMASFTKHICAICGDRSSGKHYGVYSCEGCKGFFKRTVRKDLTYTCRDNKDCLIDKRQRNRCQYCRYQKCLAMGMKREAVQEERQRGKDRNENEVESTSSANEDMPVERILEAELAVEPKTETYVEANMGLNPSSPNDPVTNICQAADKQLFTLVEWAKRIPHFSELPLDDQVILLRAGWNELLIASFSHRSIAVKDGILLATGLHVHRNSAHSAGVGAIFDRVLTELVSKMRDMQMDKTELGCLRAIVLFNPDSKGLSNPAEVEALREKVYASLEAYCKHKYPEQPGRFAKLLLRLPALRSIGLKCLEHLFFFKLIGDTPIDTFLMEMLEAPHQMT
Nature of the assay: FXR mediated transactivation (luciferase reporter) in transfected HepG2 cells. It is filed as cell-based. To be noted: each compound at 10 microM, transactivation activity of CDCA on FXR = 100%. The method, then: as §1, §2, §3

Consider `CC[C@H]1[C@@H](O)C2C3CC[C@H]([C@H](C)CCCCCOS(=O)(=O)O)[C@@]3(C)CCC2[C@@]2(C)CC[C@@H](O)C[C@@H]12` (stereo partly drawn) [BAR804, 6α-ethyl-3α, 7α-dihydroxy-25, 26-bishomo-5β-cholan-26-yl-26-sodium sulfate], for which the “GPBAR1 (% of activity in comparison to 10 μM TLCA)” value on human GPBAR1 is listed as 52.5 ± 3.5%. The “FXR (% of activity in comparison to 10 μM CDCA)” value at FXR is 196.5 ± 6.5%.

Consider `CC[C@H]1[C@@H](O)C2C3CC[C@H]([C@H](C)CCCCCO)[C@@]3(C)CCC2[C@@]2(C)CC[C@@H](O)C[C@@H]12` (stereo partly drawn) [BAR803, 6α-ethyl-3α, 7α-dihydroxy-25, 26-bishomo-5β-cholan-26-ol], for which, on human GPBAR1, the “GPBAR1 (% of activity in comparison to 10 μM TLCA)” value is given as 80.5 ± 5.0%. Moreover, the “FXR (% of activity in comparison to 10 μM CDCA)” value on FXR was 122.5 ± 5.5%.

As to `CC[C@H]1[C@H](O)[C@@H]2[C@H](CC[C@]3(C)[C@@H]([C@H](C)CCCO)CC[C@@H]23)[C@@]2(C)CCCC[C@@H]12` [BAR703, 6α-ethyl-7β-hydroxy-5β-cholan-24-ol], on human GPBAR1, the “GPBAR1 (% of activity in comparison to 10 μM TLCA)” value worked out at 47.7 ± 1.0%. In addition, the “FXR (% of activity in comparison to 10 μM CDCA)” value on FXR came to 8.6 ± 0.8%.

For `CC[C@@H]1[C@H](O)[C@@H]2[C@H](CC[C@]3(C)[C@@H]([C@H](C)CCCO)CC[C@@H]23)[C@@]2(C)CC[C@H](O)C[C@@H]12` [BAR708, 6β-ethyl-3β,7β-dihydroxy-5β-cholan-24-ol], the “GPBAR1 (% of activity in comparison to 10 μM TLCA)” value at human GPBAR1 is on record as 57.6 ± 4.6%. The “FXR (% of activity in comparison to 10 μM CDCA)” value on FXR was determined as 6.4 ± 0.8%.

For the compound `C[C@H](CCOS(=O)(=O)[O-])[C@H]1CC[C@H]2[C@@H]3[C@@H](O)C[C@@H]4C[C@H](O)CC[C@]4(C)[C@H]3CC[C@]12C.[Na+]` [BAR106, 3α,7β-dihydroxy-24-nor-5β-cholan-23-yl-23-sodium sulfate], the “GPBAR1 (% of activity in comparison to 10 μM TLCA)” value on human GPBAR1 was determined as 19.0 ± 1.3%. For the same compound, on FXR, the “FXR (% of activity in comparison to 10 μM CDCA)” value was determined as 0%.

As for `CC[C@H]1[C@H](O)[C@@H]2[C@H](CC[C@]3(C)[C@@H]([C@H](C)CCCO)CC[C@@H]23)[C@@]2(C)CC[C@@H](O)C[C@@H]12` [BAR501-6a, 6α-ethyl-3α,7β-dihydroxy-5β-cholan-24-ol], on human GPBAR1, the “GPBAR1 (% of activity in comparison to 10 μM TLCA)” value is 46.6 ± 6.7%. Further, the “FXR (% of activity in comparison to 10 μM CDCA)” value on FXR was determined as 15.4 ± 1.2%.

Consider `CC[C@H]1[C@@H](O)C2C3CC[C@H]([C@H](C)CCO)[C@@]3(C)CCC2[C@@]2(C)CC[C@H](O)C[C@@H]12` (stereo partly drawn) [BARn706, 6α-ethyl-3β,7α-dihydroxy-24-nor-5β-cholan-23-ol], for which the “GPBAR1 (% of activity in comparison to 10 μM TLCA)” value on human GPBAR1 was found to be 69.5 ± 6.5%. The “FXR (% of activity in comparison to 10 μM CDCA)” value at FXR worked out at 197.5 ± 4.5%.

In the case of `C[C@H](CCO)[C@H]1CCC2C3C(CC[C@@]21C)[C@@]1(C)CC[C@@H](O)C[C@H]1C[C@@H]3O` (stereo partly drawn) [BAR107, 3α,7β-dihydroxy-24-nor-5β-cholan-23-ol], the “GPBAR1 (% of activity in comparison to 10 μM TLCA)” value at human GPBAR1 was found to be 9.9 ± 1.7%. Also, the “FXR (% of activity in comparison to 10 μM CDCA)” value on FXR turned out to be 1.8 ± 0.3%.

As to `CC[C@H]1[C@@H](O)C2C3CC[C@H]([C@H](C)CCO)[C@@]3(C)CCC2[C@@]2(C)CCCC[C@@H]12` (stereo partly drawn) [BARn701, 6α-ethyl-7α-hydroxy-24-nor-5β-cholan-23-ol], the “GPBAR1 (% of activity in comparison to 10 μM TLCA)” value on human GPBAR1 was 55 ± 1.0%. Besides, at FXR, the “FXR (% of activity in comparison to 10 μM CDCA)” value is recorded as 90 ± 22%.

In the case of `CC[C@H]1[C@@H](O)C2C3CC[C@H]([C@H](C)CC(=O)O)[C@@]3(C)CCC2[C@@]2(C)CC[C@H](O)C[C@@H]12` (stereo partly drawn) [BARn710, 6α-ethyl-3β,7α-dihydroxy-24-nor-5β-cholan-23-oic acid], at human GPBAR1, the “GPBAR1 (% of activity in comparison to 10 μM TLCA)” value is 75 ± 8.0%. The “FXR (% of activity in comparison to 10 μM CDCA)” value on FXR worked out at 142 ± 1.0%.

In the case of `CC=C1[C@H](O)[C@@H]2[C@H](CC[C@]3(C)[C@@H]([C@H](C)CCCO)CC[C@@H]23)[C@@]2(C)CC[C@@H](O)C[C@@H]12` [BAR503, 6-ethylidene-3α,7β-dihydroxy-5β-cholan-24-ol], at human GPBAR1, the “GPBAR1 (% of activity in comparison to 10 μM TLCA)” value amounted to 59.8 ± 0.1%. Besides, on FXR, the “FXR (% of activity in comparison to 10 μM CDCA)” value amounted to 68.8 ± 26.6%.
